# From patent US20220228111A1, “NOCICEPTOR DIFFERENTIATION FROM HUMAN PLURIPOTENT STEM CELLS” (priority 2019, published 2022)
# Entries after “also recorded” stand apart in the source; their conditions may differ.
# Key:
# [1] = test system: iPSC-derived nociceptor-like cells; test: Multi-electrode array: sensitization of nociceptor-like cells with temperature stimulation; type: cell-based, human; conditions: then 40° C., day 28
# Source text: FIGS. 12A and 12B illustrate the results of an electrophysiology experiment (multi-electrode array using Maestro Pro, Axion Biosystems) showing that iPSC-derived nociceptor-like cells were sensitized in response to treatment with oxaliplatin and prostaglandin E2 (PGE2). Oxaliplatin is a widely used chemotherapeutic drug that can damage sensory neurons of the peripheral nervous system and lead to peripheral neuropathy. PGE2 is used to model inflammatory pain. At day 28 of the procedure described in Example 1, the iPSC-derived nociceptor-like cells were recorded at 37° C. for 10 minutes for baseline recording, and then pre-treated with 0.1% DMSO, 50 μM Oxaliplatin or 1 μM PGE2 for 15 minutes at 37° C. The temperature was then increased to 40° C. to stimulate the cells, and recording was performed for another 10 minutes.
# [2] = test system: iPSC-derived nociceptor-like cells; test: Multi-electrode array: stimulation of nociceptor-like cells by specific ligands; type: cell-based, human
# Method: Functional analysis of nociceptors derived from iPSCs according to the procedure described in Example 1 was performed. Multi-electrode arrays were used for the electrophysiology characterization experiments.
# [3] = test system: cellular target; conditions: cited from earlier work; for IC50: as described in Sidrauski et al.
# [4] = target: T1, purinergic receptor P2RX3 (Homo sapiens, UniProt P56373); test: Multi-electrode array: α,β-me-ATP stimulation and P2RX3 antagonist block in nociceptor-like cells; type: cell-based; conditions: 10 μM, day 28, multi-electrode array
# T1 construct: iPSC-derived nociceptor-like cells were stimulated by application of 10 μM α,β-me-ATP, which is a known agonist for P2RX3 purinergic receptors; endogenous in cells; host or cells: iPSC-derived nociceptor-like cells, day 28 of differentiation
# T1 sequence (P56373 1-397): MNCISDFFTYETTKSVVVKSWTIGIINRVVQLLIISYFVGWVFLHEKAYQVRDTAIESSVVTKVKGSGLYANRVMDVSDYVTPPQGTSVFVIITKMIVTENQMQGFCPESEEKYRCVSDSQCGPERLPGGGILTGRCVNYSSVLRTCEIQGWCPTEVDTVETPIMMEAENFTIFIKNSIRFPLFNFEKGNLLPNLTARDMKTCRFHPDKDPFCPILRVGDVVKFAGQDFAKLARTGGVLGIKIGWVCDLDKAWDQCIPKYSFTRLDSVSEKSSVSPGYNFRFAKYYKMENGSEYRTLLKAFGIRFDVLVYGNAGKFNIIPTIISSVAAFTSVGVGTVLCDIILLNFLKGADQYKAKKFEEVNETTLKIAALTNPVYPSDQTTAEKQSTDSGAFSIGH
# Method: At day 28 of the procedure described in Example 1, the iPSC-derived nociceptor-like cells were pre-treated with 0.1% DMSO or 10 μM of each known antagonist of purinergic receptor P2RX3 for 30 minutes at 37° C. The cells were then stimulated by 10 μM α,β-me-ATP, and recordings were performed using multi-electrode.
smiles,measurement,setting,value
"CCCCC[C@H](O)/C=C/[C@H]1[C@H](O)CC(=O)[C@@H]1C/C=C\CCCC(=O)O [PGE2, prostaglandin E2]",sensitization of nociceptor-like cells,[1]; 1 μM pre-treatment 15 minutes at 37° C.,sensitized
COc1cc(CNC(=O)CCCC/C=C/C(C)C)ccc1O [capsaicin],response: frequency of firing action potentials,[2]; 5 μM,increasing the frequency of firing action potentials; also recorded: stimulated
O=C(COc1ccc(Cl)cc1)NC1CCC(NC(=O)COc2ccc(Cl)cc2)CC1 (stereo not drawn) [cis-ISRIB],IC50,[3],600 nM
"C=CCN=C=S [mustard oil, allyl isothiocyanate]",response: frequency of firing action potentials,[2]; 100 μM,increasing the frequency of firing action potentials; also recorded: stimulated
O=C1[O][Pt]2([NH][C@@H]3CCCC[C@H]3[NH]2)[O]C1=O [oxaliplatin],sensitization of nociceptor-like cells,[1]; 50 μM pre-treatment 15 minutes at 37° C.,sensitized
"O=C(COc1ccc(Cl)cc1)N[C@H]1CC[C@H](NC(=O)COc2ccc(Cl)cc2)CC1 [trans-ISRIB, N,N′-((1r,4r)-cyclohexane-1,4-diyl)bis(2-(4-chlorophenoxy)acetamide)]",IC50,[3],5 nM
same,fold more potent than cis-ISRIB,[3]; trans-ISRIB vs cis-ISRIB,100 fold
"Nc1ncnc2c1ncn2[C@@H]1O[C@H](COP(=O)(O)CP(=O)(O)OP(=O)(O)O)[C@@H](O)[C@H]1O [α,β-me-ATP]",response: frequency of firing action potentials,[2]; 10 μM,increasing the frequency of firing action potentials; also recorded: stimulated
same,stimulation of nociceptor-like cells,[4],stimulated
